Laboratory results from PMC11785708, “Design and synthesis of new quinazolinone derivatives: investigation of antimicrobial and biofilm inhibition effects” (Molecular Diversity, 2024).
Converted amounts (≈) assume the structure as drawn.

Assays:
C. albicans ATCC 10231 [1] = assay: Agar well diffusion, C. albicans; assay type: cell-based; settings: Candida albicans, ATCC10231; 100 μl of test compound 20 mg/ml in DMF; ciprofloxacin and fluconazole 30 μg/ml; 24 h; mean ± SD; read-out: diameters of inhibition zone, C. albicans ATCC 10231
Method: (§1) The antimicrobial activity was tested against Gram positive bacteria: Bacillus cereus (B. cereus ATCC 6629), Bacillus subtilis (B. subtilis ATCC 6633), Staphylococcus aureus (S. aureus ATCC 6538), Gram negative bacteria: Klebsiella pneumoniae (K. pneumoniae ATCC 13883), Pseudomonas aeruginosa (P. aeruginosa ATCC 27953) and Candida albicans (C. albicans ATCC 10231). Glycerol stocks were thawed upon need and propagated into nutrient broth at 37 °C. The antibacterial activity of the compounds 9-32 was carried out in vitro using the agar well diffusion method, originally reported by […] and Bauer and coworkers and described by the National Committee for Clinical Laboratory Standards (NCCLS). Bacterial strains, adjusted at […] (equivalent to 0.5 McFarland), were used to inoculate nutrient agar plates. 9-mm diameter wells were punched into the solidified nutrient agar plates using sterile cork borer and 100 μl samples of the test compounds, dissolved in dimethyl formamide (DMF) at 20 mg/ml concentrations, were added and allowed to diffuse at 4 °C for 2 h. Subsequently, the plates were incubated overnight in an upright position at 37 °C. DMF was used as a negative control while ciprofloxacin and fluconazole (30 μg/ml) served as positive controls. After 24 h incubation, the diameters of the growth inhibition zones were recorded in mm. Data was expressed as mean ± standard deviation of three replicates.

P. aeruginosa ATCC 27953 [2] = assay: Agar well diffusion, P. aeruginosa; assay type: cell-based; settings: Pseudomonas aeruginosa, ATCC27953; 100 μl of test compound 20 mg/ml in DMF; ciprofloxacin and fluconazole 30 μg/ml; 24 h; mean ± SD; read-out: diameters of inhibition zone, P. aeruginosa ATCC 27953
Method: as §1

K. pneumoniae ATCC 13883 [3] = assay: Agar well diffusion, K. pneumoniae; assay type: cell-based; settings: Klebsiella pneumoniae, ATCC13883; 100 μl of test compound 20 mg/ml in DMF; ciprofloxacin and fluconazole 30 μg/ml; 24 h; mean ± SD; read-out: diameters of inhibition zone, K. pneumoniae ATCC 13883
Method: as §1

B. subtilis ATCC 6633 [4] = assay: Agar well diffusion, B. subtilis; assay type: cell-based; settings: Bacillus subtilis, ATCC6633; 100 μl of test compound 20 mg/ml in DMF; ciprofloxacin and fluconazole 30 μg/ml; 24 h; mean ± SD; read-out: diameters of inhibition zone, B. subtilis ATCC 6633
Method: as §1

B. cereus ATCC 6629 [5] = assay: Agar well diffusion, B. cereus; assay type: cell-based; settings: Bacillus cereus, ATCC6629; 100 μl of test compound 20 mg/ml in DMF; ciprofloxacin and fluconazole 30 μg/ml; 24 h; mean ± SD; read-out: diameters of inhibition zone, B. cereus ATCC 6629
Method: as §1

K. pneumoniae ATCC 13883 [6] = assay: MIC determination, K. pneumoniae; assay type: cell-based, Klebsiella pneumoniae; settings: serial dilutions, triplicate; for MIC: Klebsiella pneumoniae, ATCC13883
Method: (§2) Serial dilutions of the test compounds were tested to determine their MIC against the most susceptible organisms. The MIC was expressed as the lowest concentration which inhibited the visible growth of the corresponding microorganism. All assays were performed in triplicate.

C. albicans ATCC 10231 [7] = assay: MIC determination, C. albicans; assay type: cell-based, Candida albicans; settings: serial dilutions, triplicate
Method: as §2

P. aeruginosa ATCC 27953 [8] = assay: MIC determination, P. aeruginosa; assay type: cell-based, Pseudomonas aeruginosa; settings: serial dilutions, triplicate; for MIC: Pseudomonas aeruginosa, ATCC27953
Method: as §2

Cell viability MTT assay = assay type: cell-based; settings: human, BJ1 cells (normal skin fibroblasts)
Method: Cell viability testing at 5 mg/ml was carried out by colorimetric MTT assay on human normal cell line BJ1 (skin fibroblasts) to investigate the toxicity of the most broad spectrum derivatives 9, 15, 16, 18, 19, 20 and 29 (Table 3). The viability of the cells treated with the aforementioned derivatives was more than 87% at 5 mg/ml concentration. This gives indication that the compounds are tolerated and nontoxic for human cells, as the cytotoxic dose was higher than the therapeutic dose on most of microorganisms. It is worth mentioning that the safe limit of the percent of dead cells is not an absolute value and could be more than 10% as reported in previous studies.
The most broad spectrum compounds were evaluated for their cytotoxic activity against BJ1 cell line using colorimetric MTT [3-(4,5-dimethylthiazol-2-yl)-2,5-diphenyltetrazolium bromide] assay.

B. subtilis ATCC 6633 [9] = assay: MIC determination, B. subtilis; assay type: cell-based, Bacillus subtilis; settings: serial dilutions, triplicate; for MIC: Bacillus subtilis, ATCC6633
Method: as §2

B. cereus ATCC 6629 [10] = assay: MIC determination, B. cereus; assay type: cell-based, Bacillus cereus; settings: serial dilutions, triplicate
Method: as §2

SMILES	zone of inhibition at 20000 µg/mL (C. albicans ATCC 10231 [1])	zone of inhibition at 20000 µg/mL (P. aeruginosa ATCC 27953 [2])	melting point	zone of inhibition at 20000 µg/mL (K. pneumoniae ATCC 13883 [3])	zone of inhibition at 20000 µg/mL (B. subtilis ATCC 6633 [4])	other results
OC(Cn1cncn1)(Cn1cncn1)c1ccc(F)cc1F [Fluconazole, reference compound]	20 ± 0.18 mm	–	–	–	–	–
COc1cc(C=Nn2c(CN3CCCCC3)nc3ccccc3c2=O)cc(OC)c1OC [Compound 25, 2-(Piperidin-1-ylmethyl)-3-[(3,4,5-trimethoxybenzylidene)amino]quinazolin-4(3H)-one]	–	21 ± 0.17 mm	112 to 114 °C	14 ± 0.17 mm	–	–
CCN(CC)Cc1nc2ccccc2c(=O)n1N=Cc1ccc(C)cc1 [Compound 11, 2-[(Diethylamino)methyl]-3-[(4-methylbenzylidene)amino]quinazolin-4(3H)-one]	–	–	74 °C	–	14 ± 0.16 mm	–
CCN(CC)Cc1nc2ccccc2c(=O)n1N=Cc1ccc(Cl)cc1 [Compound 10, 3-[(4-Chlorobenzylidene)amino]-2-[(diethylamino)methyl]quinazolin-4(3H)-one]	–	–	124 °C	15 ± 0.15 mm	–	–
O=c1c2ccccc2nc(CN2CCOCC2)n1N=Cc1ccc([N+](=O)[O-])cc1 [Compound 32, 2-(Morpholinomethyl)-3-[(4-nitrobenzylidene)amino]quinazolin-4(3H)-one]	–	18 ± 0.09 mm	200 °C	–	14 ± 0.27 mm	–
O=c1c2ccccc2nc(CN2CCCCC2)n1N=Cc1ccccc1 [Compound 21, 3-(Benzylideneamino)-2-(piperidin-1-ylmethyl)quinazolin-4(3H)-one]	–	–	98 °C	12 ± 0.15 mm	17 ± 0.14 mm	zone of inhibition at 20000 µg/mL (B. cereus ATCC 6629 [5]): 12 ± 0.16 mm
O=c1c2ccccc2nc(CN2CCCCC2)n1N=Cc1ccc([N+](=O)[O-])cc1 [Compound 26]	–	–	180 to 182 °C	11 ± 0.07 mm	12 ± 0.11 mm	–
COc1cc(C=Nn2c(CN3CCOCC3)nc3ccccc3c2=O)cc(OC)c1OC [Compound 31, 2-(Morpholinomethyl)-3-[(3,4,5-trimethoxybenzylidene)amino]quinazolin-4(3H)-one]	–	–	155 °C	–	–	–
O=c1c2ccccc2nc(CN2CCOCC2)n1N=Cc1ccccc1 [Compound 27, 3-(Benzylideneamino)-2-(morpholinomethyl)quinazolin-4(3H)-one]	13 ± 0.09 mm	–	132 °C	14 ± 0.16 mm	14 ± 0.15 mm	–
O=c1c2ccccc2nc(CN2CCCCC2)n1N=Cc1ccc(Cl)cc1 [Compound 22, 3-[(4-Chlorobenzylidene)amino]-2-(piperidin-1-ylmethyl)quinazolin-4(3H)-one]	–	–	130 °C	–	10 ± 0.07 mm	–
Cc1ccc(C=Nn2c(CN3CCCCC3)nc3ccccc3c2=O)cc1 [Compound 23, 3-[(4-Methylbenzylidene)amino]-2-(piperidin-1-ylmethyl)quinazolin-4(3H)-one]	11 ± 0.13 mm	–	124 °C	–	–	–
Cc1ccc(C=Nn2c(CN3CCOCC3)nc3ccccc3c2=O)cc1 [Compound 29, 3-[(4-Methylbenzylidene)amino]-2-(morpholinomethyl)quinazolin-4(3H)-one]	13 ± 0.07 mm	14 ± 0.16 mm	128 °C	20 ± 0.15 mm	14 ± 0.06 mm	MIC (K. pneumoniae ATCC 13883 [6]): 2500 µg/mL (≈ 6.9 mM); MIC, K. pneumoniae ATCC 13883 (K. pneumoniae ATCC 13883 [6]): 2500 ± 500 µg/mL (≈ 6.9 mM); MIC (C. albicans ATCC 10231 [7]; Candida albicans, ATCC10231): 5000 µg/mL (≈ 13.8 mM); MIC, C. albicans ATCC 10231 (C. albicans ATCC 10231 [7]): 5000 ± 290 µg/mL (≈ 13.8 mM); MIC (P. aeruginosa ATCC 27953 [8]): 1500 µg/mL (≈ 4.14 mM); viability at 5 mg/ml (Cell viability MTT assay): 87.6 ± 3.61%; MIC (B. subtilis ATCC 6633 [9]): 500 µg/mL (≈ 1.38 mM); MIC, B. subtilis ATCC 6633 (B. subtilis ATCC 6633 [9]): 500 ± 60 µg/mL (≈ 1.38 mM)
CCN(CC)Cc1nc2ccccc2c(=O)n1N=Cc1cc(OC)c(OC)c(OC)c1 [Compound 13, 2-[(Diethylamino)methyl]-3-[(3,4,5-trimethoxybenzylidene)amino]quinazolin-4(3H)-one]	12 ± 0.28 mm	20 ± 0.18 mm	116 °C	12 ± 0.07 mm	–	–
Cc1ccc(C=Nn2c(CN3CCCC3)nc3ccccc3c2=O)cc1 [Compound 17, 3-[(4-Methylbenzylidene)amino]-2-(pyrrolidin-1-ylmethyl)quinazolin-4(3H)-one]	–	16 ± 0.22 mm	156 °C	–	–	–
CCN(CC)Cc1nc2ccccc2c(=O)n1N=Cc1ccccc1 [Compound 9, 3-(Benzylideneamino)-2-[(diethylamino)methyl]quinazolin-4(3H)-one]	–	21 ± 0.36 mm	78 °C	12 ± 0.17 mm	15 ± 0.25 mm	MIC (B. cereus ATCC 6629 [10]; Bacillus cereus, ATCC6629): 1000 µg/mL (≈ 2.99 mM); MIC, B. cereus ATCC 6629 (B. cereus ATCC 6629 [10]): 1000 ± 0 µg/mL (≈ 2.99 mM); MIC (K. pneumoniae ATCC 13883 [6]): 1500 ± 60 µg/mL (≈ 4.49 mM); MIC (P. aeruginosa ATCC 27953 [8]): 2000 µg/mL (≈ 5.98 mM); MIC, P. aeruginosa ATCC 27953 (P. aeruginosa ATCC 27953 [8]): 2000 ± 290 µg/mL (≈ 5.98 mM); viability at 5 mg/ml (Cell viability MTT assay): 91.5 ± 2.21%; MIC (B. subtilis ATCC 6633 [9]): 2000 µg/mL (≈ 5.98 mM); zone of inhibition at 20000 µg/mL (B. cereus ATCC 6629 [5]): 14 ± 0.09 mm
O=c1c2ccccc2nc(CN2CCOCC2)n1N=Cc1ccc(Cl)cc1 [Compound 28, 3-[(4-Chlorobenzylidene)amino]-2-(morpholinomethyl)quinazolin-4(3H)-one]	–	–	140 to 142 °C	16 ± 0.18 mm	12 ± 0.2 mm	–
CCN(CC)Cc1nc2ccccc2c(=O)n1N=Cc1ccc([N+](=O)[O-])cc1 [Compound 14, 2-[(Diethylamino)methyl]-3-[(4-nitrobenzylidene)amino]quinazolin-4(3H)-one]	12 ± 0.37 mm	–	155 °C	–	–	–
CCN(CC)Cc1nc2ccccc2c(=O)n1N=Cc1ccc(OC)cc1 [Compound 12, 2-[(Diethylamino)methyl]-3-[(4-methoxybenzylidene)amino]quinazolin-4(3H)-one]	–	18 ± 0.27 mm	102 to 104 °C	–	–	–
COc1ccc(C=Nn2c(CN3CCCCC3)nc3ccccc3c2=O)cc1 [Compound 24, 3-[(4-Methoxylbenzylidene)amino]-2-(piperidin-1-ylmethyl)quinazolin-4(3H)-one]	–	14 ± 0.21 mm	138 °C	12 ± 0.14 mm	–	–
